Experimental data reported in paper PMC6270099, “Synthesis, Biological Evaluation, and Pharmacokinetic Study of Novel Liguzinediol Prodrugs” (Molecules, 2013).
Marks after values point to notes of the source that are not given here. One block for each compound: values may come before it.

What was measured:
[1] = tested on: isolated Langendorff-perfused rat hearts; experiment: Ex vivo Langendorff-perfused rat heart, cardiac performance; settings: for ∆% +dP/dtmax / ∆% LVDP / ∆% −dP/dtmax: increase vs. control; for LVDP: isolated rat heart, mean ± SD, n = 6
Description: The cardiac contractility and safety of prodrugs 3–5 were evaluated on the myocardium in normal isolated rat hearts with LZDO as a positive control. Prodrugs 3–5 exerted positive inotropic effects in a dose-dependent manner. The increased rate in left ventricular developed pressure (LVDP, accepted as contractile force), +dP/dtmax (used as an index of contractility), the maximum rate of pressure decrease of the left ventricle ([…], used as an index of diastolic function) and the heart rate (HR, used as an index of heart muscle oxygen consumption) of these compounds vs. control are listed in Table 1.
All commercial reagents and solvents were used without further purification unless otherwise specified. Melting points were determined using a model Buchi B-450 apparatus. ESI-MS were recorded on a TOF mass spectrometer (Applies-Biosystem Mariner). IR spectra were acquired by using a THERMO IR spectrometer Model Nicolet-100. ^1H- and ^13C-NMR spectra (500/125 MHz) were recorded on a Bruker Advance 500 spectrophotometer. Mass spectra were recorded on a ZAB-HS mass spectrometer and are reported as m/z values. HPLC analysis was conducted on a Waters 2695 HPLC instrument equipped with a UV detector (model 2489). LZDO and prodrugs 3–5 were analysed by HPLC, and their purity was confirmed to be greater than 98.0%. In vitro metabolic stability analysis was conducted by a HPLC method, using stock standard solutions of LZDO and prodrugs that were prepared in water at a concentration of 30 mM. The positive inotropic effects on the myocardium of LZDO and prodrugs 3–5 in vitro were evaluated on Langendorff-perfused hearts isolated from normal Sprague-Dawley rats. A HPLC method was applied to measure the rat plasma concentrations of LZDO and prodrug 3 after intragastric administration of prodrug 3 in the rats.
Sprague-Dawley adult male rats weighing 260–320 g were anaesthetised by intraperitoneal administration of 20% urethane (1.2 g/kg). The hearts were quickly removed and placed into an ice-cold modified buffer until contractions ceased. The heart was cleaned of surrounding tissues, mounted on the aortic cannula of the Langendorff perfusion system apparatus, and perfused with oxygenated buffer (mM): NaCl 117, KCl 5.7, CaCl2 1.8, MgCl2 1.7, NaHCO3 4.4, NaH2PO4 1.5, HEPES 20 and glucose 11. The buffer was equilibrated with 95% O2 and 5% CO2 and adjusted to pH 7.4 with NaOH before it entered the heart. An epicardial electrogram was registered using two stainless steel electrodes, one attached to the apex of the heart and the other to the aortic cannula. To obtain an isovolumetrically beating preparation, a latex balloon filled with water and connected by a catheter to a transducer was inserted through the left atrium into the left ventricle and inflated to provide an end-diastolic pressure between 8 and 12 mm Hg. Before each experimental protocol was initiated, the isolated hearts were set at a mean arterial pressure of 60–80 mm Hg and allowed to stabilise at 37 °C for 40–60 min. The isolated rat hearts were then perfused in sequence with 1, 10, and 100 μM of LZDO and prodrugs 3–5 in each group. A RM6240B/C four channel physiological recording instrument (Chengdu Instrument Factory, Chengdu, China) was used for continuous recording of LVSP, LVEDP, HR (derived from electrogram), +dP/dtmax and −dP/dtmax throughout the experiments. The criteria for established stability were LVDP > 50 mmHg, +dP/dtmax > 1,600 mmHg·s^−1, heart rate > 180 beats·min^−1 and normal sinus rhythm. The hearts were not studied if they had weak contractility (+dP/dtmax < 1,600 mmHg·s^−1) and severe arrhythmia. Diastolic balloon pressure was maintained at 8 mmHg. LVDP was calculated as the difference between the systolic and diastolic pressures. The results are expressed as the mean value of hemodynamic variables (n = 6). Statistical analysis was performed using SPSS for Windows (version 13.0). Data were analyzed by One-way ANOVA. […]

[2] = Pharmacokinetics of LZDO in rats after intragastric administration of prodrug 3; assay type: in vivo, rat; settings: rats (data not shown)
Description: Pharmacokinetic parameters including half-life, clearance, and bioavailability are important properties of a drug candidate. […] The major pharmacokinetic parameters of LZDO were calculated using a noncompartment model based on statistical moment. The pharmacokinetic parameters of LZDO after intragastric administration of prodrug 3 at 10, 20 and 40 mg/kg in rats are summarized in Table 2. The pharmacokinetic parameters of LZDO after intragastric administering LZDO at 10, 20 and 50 mg/kg in rats are summarized in Table 3 [19]. Prodrug 3 was converted completely within 2 h in rats (data not shown).
Sprague-Dawley rats (male, weighing 200 ± 20 g) were obtained from Slack Laboratory Animal Site (Shanghai, China) and kept in an environmentally controlled breeding room for at least five days before experimentation. The rats were fasted overnight but with free access to water before the test. Animal welfare and experimental procedures were strictly in accordance with the guide for the care and use of laboratory animals. […] The collected blood samples were pretreated by the aforementioned method (sample dilutions were made when necessary) and the concentrations of LZDO and prodrug 3 in each sample were finally determined based on the validated HPLC method. […]

time to complete conversion of prodrug in rats [2]: ≤ 2 h
SMILES: CC(=O)OCc1nc(C)c(COC(C)=O)nc1C [compound 3]
+dP/dtmax ([1]; 1 μM): 1,641 ± 29 mmHg/s | HR ([1]; 1 μM): 203 ± 15 beat·min^−1 | −dP/dtmax ([1]; 1 μM): −1,139 ± 76 mmHg/s | ∆% +dP/dtmax ([1]; 1 μM): 1.9 ± 0.5% | ∆% LVDP ([1]; 1 μM): 15.0 ± 5.5% | ∆% −dP/dtmax ([1]; 1 μM): 4.9 ± 5.9% | LVDP ([1]; 1 μM): 63 ± 2 ^b mmHg | +dP/dtmax ([1]; 10 μM): 1,768 ± 91 ^bd mmHg/s | HR ([1]; 10 μM): 204 ± 14 beat·min^−1 | −dP/dtmax ([1]; 10 μM): −1,184 ± 75 ^a mmHg/s | ∆% +dP/dtmax ([1]; 10 μM): 9.8 ± 7.0% | ∆% LVDP ([1]; 10 μM): 26.3 ± 7.7% | ∆% −dP/dtmax ([1]; 10 μM): 9.0 ± 5.1% | LVDP ([1]; 10 μM): 69 ± 1.1 ^bd mmHg | +dP/dtmax ([1]; 100 μM): 2,123 ± 82 ^bdf mmHg/s | HR ([1]; 100 μM): 205 ± 26 beat·min^−1 | −dP/dtmax ([1]; 100 μM): −1,313 ± 70 ^bdf mmHg/s | ∆% +dP/dtmax ([1]; 100 μM): 31.8 ± 5.3% | ∆% LVDP ([1]; 100 μM): 44.7 ± 6.6% | ∆% −dP/dtmax ([1]; 100 μM): 20.9 ± 5.1% | LVDP ([1]; 100 μM): 79 ± 1.6 ^bdf mmHg | positive inotropic effect on the myocardium ([1]; normal isolated rat hearts, 1, 10, 100 μM): most potent prodrug

SMILES: Cc1nc(COC(=O)C(C)C)c(C)nc1COC(=O)C(C)C [compound 4, 2,5-Di-iso-butyryloxymethyl-3,6-dimethylpyrazine]
+dP/dtmax ([1]; 1 μM): 1,669 ± 103 mmHg/s | HR ([1]; 1 μM): 213 ± 46 beat·min^−1 | −dP/dtmax ([1]; 1 μM): −1,101 ± 102 mmHg/s | ∆% +dP/dtmax ([1]; 1 μM): 2.2 ± 3.4% | ∆% LVDP ([1]; 1 μM): 17.4 ± 9.8% | ∆% −dP/dtmax ([1]; 1 μM): 5.6 ± 8.3% | LVDP ([1]; 1 μM): 63 ± 3 ^b mmHg | +dP/dtmax ([1]; 10 μM): 1,765 ± 52 ^a mmHg/s | HR ([1]; 10 μM): 196 ± 16 beat·min^−1 | −dP/dtmax ([1]; 10 μM): −1,196 ± 54 ^bc mmHg/s | ∆% +dP/dtmax ([1]; 10 μM): 4.9 ± 5.4% | ∆% LVDP ([1]; 10 μM): 14.2 ± 10.0% | ∆% −dP/dtmax ([1]; 10 μM): 9.9 ± 9.5% | LVDP ([1]; 10 μM): 60 ± 4 ^a mmHg | +dP/dtmax ([1]; 100 μM): 1,952 ± 49 ^bdf mmHg/s | HR ([1]; 100 μM): 191 ± 29 beat·min^−1 | −dP/dtmax ([1]; 100 μM): −1,399 ± 61 ^bdf mmHg/s | ∆% +dP/dtmax ([1]; 100 μM): 9.0 ± 8.9% | ∆% −dP/dtmax ([1]; 100 μM): 16.7± 15.2% | LVDP ([1]; 100 μM): 73 ± 2.3 ^bdf mmHg

SMILES: Cc1nc(COC(=O)c2ccccc2)c(C)nc1COC(=O)c1ccccc1 [compound 5, 2,5-Dibenzoyloxymethyl-3,6-dimethylpyrazine]
+dP/dtmax ([1]; 1 μM): 1,688 ± 95 mmHg/s | HR ([1]; 1 μM): 189 ± 30 beat·min^−1 | −dP/dtmax ([1]; 1 μM): −1,095 ± 45 mmHg/s | ∆% +dP/dtmax ([1]; 1 μM): 1.0 ± 1.1% | ∆% LVDP ([1]; 1 μM): 5.3 ± 3.3% | ∆% −dP/dtmax ([1]; 1 μM): 1.3 ± 0.8% | LVDP ([1]; 1 μM): 55 ± 5 mmHg | +dP/dtmax ([1]; 10 μM): 1,831 ± 14 ^bd mmHg/s | HR ([1]; 10 μM): 196 ± 40 beat·min^−1 | −dP/dtmax ([1]; 10 μM): −1,245 ± 48 ^bd mmHg/s | ∆% +dP/dtmax ([1]; 10 μM): 9.9 ± 5.9% | ∆% LVDP ([1]; 10 μM): 13.9 ± 7.4% | ∆% −dP/dtmax ([1]; 10 μM): 15.3 ± 2.8% | LVDP ([1]; 10 μM): 59 ± 2.5 ^b mmHg | +dP/dtmax ([1]; 100 μM): 1,962 ± 70 ^bdf mmHg/s | HR ([1]; 100 μM): 213 ± 41 beat·min^−1 | −dP/dtmax ([1]; 100 μM): −1,314 ± 63 ^bde mmHg/s | ∆% +dP/dtmax ([1]; 100 μM): 17.6 ± 6.8% | ∆% LVDP ([1]; 100 μM): 24.5 ± 11.2% | ∆% −dP/dtmax ([1]; 100 μM): 21.7 ± 7.2% | LVDP ([1]; 100 μM): 64 ± 2.4 ^bde mmHg
